Source: patent US20260317367A1, “SALTS INCLUDING CRYSTALLINE SALTS OF 25-HYDROXY-CHOLEST-5-EN-3-SULFATE AND METHODS FOR PREPARING SAME” (Durect Corporation, priority 2022, published 2026)
Counter-ions that a name gives are not always drawn. Like-named read-outs stand apart in the source and are kept apart here. One block for each compound: values may come before it.

Columns and labels:
Assay type in all cases: physicochemical
[1] = Solubility of 25HC3S salts after one day at room temperature (HPLC, as free acid); conditions: one day
Method in brief: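 25HC3S salts were shaken with excess solid at room temperature for one day in organic solvents or aqueous/biorelevant media (FaSSIF, FeSSIF, FaSSGF), then centrifuged. Supernatants were assayed by HPLC against a free-acid standard curve (11 μg/mL to 1.5 mg/mL); values are mg/mL free acid, LOD 0.0007 mg/mL.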

[2] = Solid-state chemical stability of 25HC3S salts at 2-8° C., 60° C. and 80° C. (HPLC assay and degradation products); conditions: for % Impurities, Total / % Impurities, 25-HC: ND = Not Detected; for Overall physical and chemical stability (in words): 60° C.; for % Impurities, 25-HC: 25-Hydroxy-Cholesterol; for Physical and chemical solid-state stability (comments) / Stability after 5 weeks at 80° C. (in words): 5 weeks; for Stability after 5 weeks at 80° C. (in words) / remaining at 504 h / remaining at 840 h: solid state
Method in brief: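 Crystalline 25HC3S salts (~25 mg powder per vial) stored at 2-8° C. or 80° C., pulled at 3 and 6 weeks; some 3-week 2-8° C. vials moved to 60° C. for 1 week. Dissolved in 100% methanol (sonication/vortexing, centrifugation or dilution), then HPLC against 25HC3S sodium standards (0.75-1.25 mg/mL) for assay and degradants.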

[3] = Dynamic vapor sorption (DVS), hygroscopicity; conditions: DVS
[4] = 2-8° C., 3 wk, listed as 25HC3S t-butylammonium
[5] = 2-8° C., 5 wk, listed as 25HC3S t-butylammonium
[6] = 80° C., 3 wk, listed as 25HC3S t-butylammonium
[7] = 80° C., 5 wk, listed as 25HC3S t-butylammonium
[8] = 80° C., 5 wk, 50400 min, listed as 25HC3S t-butylammonium

Solubility in FaSSGF (in words) ([1]; room temperature): high solubility | Solubility in FaSSIF (in words) ([1]; room temperature): high solubility | Solubility in FaSSIF (in words) ([1]; room temperature, listed as crystalline 25HC3S t-butylammonium): relatively high solubility | Solubility in FeSSIF (in words) ([1]; FeSSIF, room temperature): high solubility | Assay ([2]; 2-8° C., 3 wk, 30240 min, listed as 25HC3S t-butylammonium): 99.8 % w/w | % Impurities, Total [2, 4]: 1.5% | Assay ([2]; 2-8° C., 5 wk, 50400 min, listed as 25HC3S t-butylammonium): 106.2 % w/w | % Impurities, Total [2, 5]: 1.5% | Overall physical and chemical stability (in words) ([2]; 2-8° C., 80° C.): physically and chemically stable | Overall physical and chemical stability (in words) ([2]; 2-8° C., 80° C., listed as t-butylammonium): relatively stable | % Impurities, 25-HC [2, 4]: 0.3% | % Impurities, 25-HC [2, 5]: 0.3% | % Impurities, 25-HC [2, 6]: 0.3% | % Impurities, 25-HC [2, 7]: 0.2% | Stressed stability at 80° C. (in words) ([2]; 80° C.): good, stressed stability | % Recovery ([2]; 80° C., 3 wk, vs 2-8° C., 30240 min, listed as 25HC3S t-butylammonium, 30240 min): 99.4% | Assay ([2]; 80° C., 3 wk, 30240 min, listed as 25HC3S t-butylammonium): 99.2 % w/w | % Impurities, Total [2, 6]: 1.7% | % Recovery, 2-8° C./5 wk vs 80° C./5 wk [2, 8]: 98.8% | Assay [2, 8]: 104.9 % w/w | % Impurities, Total [2, 7]: 1.6% | Stability after 5 weeks at 80° C. (in words) ([2]; 80° C.): stable | Water uptake (weight gain) up to about 95% relative humidity ([3]; 5% to about 95% RH, listed as crystalline 25HC3S t-butylammonium): less than 0.5% | Reversibility of water uptake (in words) ([3]; RH reduced from 95% to 5%, listed as crystalline 25HC3S t-butylammonium): reversibly lose all that water | Hygroscopicity (in words) ([3]; listed as crystalline 25HC3S t-butylammonium): low hygroscopicity
Compound: CC(CCCC(C)(C)O)C1CCC2C3CC=C4CC(OS(=O)(=O)O)CCC4(C)C3CCC12C (stereo not drawn) [Salt #12]
Physical and chemical solid-state stability (comments) ([2]; 80° C.): Stable after 5 weeks at 80 °C physically and chemically.

solubility at 24 h ([1]; 0.9% nacl, room temperature, as free acid, ND = not detected, detection limit 0.7 μg/mL, read-out: Solubility in 0.9% NaCl): 8 µg/mL | solubility at 24 h ([1]; 5% dextrose, room temperature, as free acid, ND = not detected, detection limit 0.7 μg/mL, read-out: Solubility in 5% Dextrose): 38 µg/mL | Solubility in FaSSGF (in words) ([1]; room temperature): low solubility | Solubility in FaSSGF ([1]; Fasted State Simulated Gastric Fluid, pH 1.6, room temperature, as free acid, LOD 0.0007 mg/mL): no solubilized drug was detected | solubility at 24 h ([1]; acetonitrile, organic solvent or mixture, acetonitrile, room temperature, as free acid, read-out: Solubility in ACN): 800 µg/mL | solubility at 24 h ([1]; ethanol, organic solvent or mixture, ethanol, room temperature, as free acid, ≥ = did not reach saturation, read-out: Solubility in EtOH): 1700 µg/mL | solubility at 24 h ([1]; fassif, room temperature, as free acid, read-out: Solubility in FaSSIF): 72 µg/mL | solubility at 24 h ([1]; fessif, room temperature, as free acid, read-out: Solubility in FeSSIF): 676 µg/mL | solubility at 24 h ([1]; isopropyl alcohol, organic solvent or mixture, isopropyl alcohol, room temperature, as free acid, read-out: Solubility in IPA): 900 µg/mL | solubility at 24 h ([1]; methanol, organic solvent or mixture, methanol, room temperature, as free acid, ≥ = did not reach saturation, read-out: Solubility in MeOH): 5900 µg/mL | solubility at 24 h ([1]; water, room temperature, as free acid, ND = not detected, detection limit 0.7 μg/mL, read-out: Solubility in H2O): 40 µg/mL | % Impurities, Total ([2]; 2-8° C., 3 wk): 3.2% | % Impurities, Total ([2]; 2-8° C., 5 wk): 2.4% | Overall physical and chemical stability (in words) ([2]; 2-8° C., 80° C.): physically and chemically stable | Overall physical and chemical stability (in words) ([2]; 2-8° C., 80° C., listed as lysine): relatively stable | % Impurities, 25-HC ([2]; 2-8° C., 3 wk): 0.3% | % Impurities, 25-HC ([2]; 2-8° C., 5 wk): 0.3% | % Impurities, 25-HC ([2]; 80° C., 3 wk): 0.3% | % Impurities, 25-HC ([2]; 80° C., 5 wk): 0.3% | Stressed stability at 80° C. (in words) ([2]; 80° C.): good, stressed stability | % Impurities, Total ([2]; 80° C., 3 wk): 3.7% | % Impurities, Total ([2]; 80° C., 5 wk): 3.1% | remaining at 504 h ([2]; 2-8° C., 3 wk, read-out: Assay): 91.5% | remaining at 840 h ([2]; 2-8° C., 5 wk, read-out: Assay): 94.2% | remaining at 504 h ([2]; 80° C., 3 wk, vs 2-8° C., read-out: % Recovery): 101% | remaining at 504 h ([2]; 80° C., 3 wk, read-out: Assay): 92.8% | Stability after 5 weeks at 80° C. (in words) ([2]; 80° C.): stable | remaining at 840 h ([2]; 80° C., 5 wk, read-out: % Recovery, 2-8° C./5 wk vs 80° C./5 wk): 103% | remaining at 840 h ([2]; 80° C., 5 wk, read-out: Assay): 96.9% | Relative humidity above which the salt is hygroscopic [3]: above 75 % relative humidity
Compound: C[C@H](CCCC(C)(C)O)[C@H]1CC[C@H]2[C@@H]3CC=C4C[C@@H](OS(=O)(=O)O)CC[C@]4(C)[C@H]3CC[C@]12C [Salt #14]
Physical and chemical solid-state stability (comments) ([2]; 80° C.): Stable after 5 weeks at 80 °C physically and chemically.
